Assay results reported in patent publication US7285392B2, “Methods for identifying active compounds” (Biovitrum AB, priority 2003, dated 2007).

What was measured:
[1] = test system: protein interactions with OCT1 DNA probe; experiment: EMSA with OCT1 DNA probe, nuclear extracts of WRL-68 cells; assay type: cell-based, human; conditions: stimulated
Experimental: (§1) Cell culture: WRL-68 cells, a human fetal hepatic cell-line, were cultured in EMEM medium with NaHCO3 (Statens Veterinärmedicinska Anstalt), supplemented with 10% fetal bovine serum (FBS), 2% L-Glutamine, 1% Pyruvate and 1% Non essential amino acids (NEA), all from GIBCO. The cells were sub-cultivated twice weekly by trypsination to maintain a cell density of approximately 80%.
(§2) Transfection: Cells were transfected with human full-length GH-receptor (pMB1288, 2 μg/μl) by using DOTAP Liposomal Transfection Reagent (Roche), according to manufacturers manual. With this reagent a cationic liposome-mediated transfection method (lipofection) is used. […]
(§3) Extraction of nuclear proteins: To extract the proteins from the nuclei, the nuclear pellets were re-suspended in 2×lysis buffer with protease and phosphatase inhibitors (100 mM HEPES, pH 7.6, 300 mM NaCl, 10 mM EDTA (GIBCO), 2% Triton X-100 (Sigma), 0.2 mM PMSF, 0.2 mM sodium orto-vanadate, 2 nM okadaic acid, 1×complete), or EMSA buffer with inhibitors (20 mM Tris pH 8.0, 1.5 mM MgCl2, 0.2 mM EDTA, 25% glycerol, 0.5 mM PMSF, 0.2 mM sodium ortho-vanadate, 2 nM okadaic acid, 1×complete protease inhibitor), depending on whether the samples should also be used in electrophoresis mobility shift assays (EMSA) or not. For an optimal protein extraction, three different methods were evaluated. […]

[2] = test system: AP1 transcription factor binding to AP1 DNA probe; experiment: EMSA with AP1 DNA probe (control), nuclear extracts of non-transfected WRL-68 cells; assay type: cell-based, human; conditions: stimulated
Experimental: as §1
(§4) Stimulation: Cells were stimulated two days after transfection at a confluence of approximately 80%. […]
(§5) Extraction of nuclear proteins: To extract the proteins from the nuclei, the nuclear pellets were re-suspended in 2×lysis buffer with protease and phosphatase inhibitors (100 mM HEPES, pH 7.6, 300 mM NaCl, 10 mM EDTA (GIBCO), 2% Triton X-100 (Sigma), 0.2 mM PMSF, 0.2 mM sodium orto-vanadate, 2 nM okadaic acid, 1×complete), or EMSA buffer with inhibitors (20 mM Tris pH 8.0, 1.5 mM MgCl2, 0.2 mM EDTA, 25% glycerol, 0.5 mM PMSF, 0.2 mM sodium ortho-vanadate, 2 nM okadaic acid, 1×complete protease inhibitor), depending on whether the samples should also be used in electrophoresis mobility shift assays (EMSA) or not. For an optimal protein extraction, three different methods were evaluated. […] Optimal extraction was evaluated by Western blot and protein concentration determination as described below. […]

[3] = test system: protein interactions with GHRE DNA probe; experiment: EMSA with GHRE DNA probe, nuclear extracts of GHR-transfected and non-transfected WRL-68 cells; assay type: cell-based, human
Experimental: as §1
Transfection: Cells were transfected with human full-length GH-receptor (pMB1288, 2 μg/μl) by using DOTAP Liposomal Transfection Reagent (Roche), according to manufacturers manual. With this reagent a cationic liposome-mediated transfection method (lipofection) is used. T75 flasks with WRL-68 cells were transfected with 10 μg DNA for each flask. 5 μl (10 μg) DNA was diluted with 250 μl OPTIMEM1 medium (GIBCO) and mixed gently with 75 μl DOTAP reagent diluted in 175 μl OPTIMEM1 medium. The mixture was incubated for 10 minutes and then mixed gently with 10 ml OPTIMEM1 medium. Cells were washed once and then incubated for 4 hours with the DNA/DOTAP transfection mix, which was then changed to fresh culture medium. Cells were re-seeded into new culture dishes the following day.
as §4, §5

[4] = biological target: T1, GH receptor interaction with other transcription factors (Homo sapiens, UniProt P10912); experiment: Electrophoretic mobility shift assays, GH-receptor transfected cells (summary); assay type: cell-based; conditions: treatment with BVTA
T1 construct: Cells were transfected with human full-length GH-receptor (pMB1288, 2 μg/μl); expressed in transfected cells; host or cells: WRL-68 (human fetal hepatic cell line), plasmid pMB1288
T1 sequence (P10912 19-638): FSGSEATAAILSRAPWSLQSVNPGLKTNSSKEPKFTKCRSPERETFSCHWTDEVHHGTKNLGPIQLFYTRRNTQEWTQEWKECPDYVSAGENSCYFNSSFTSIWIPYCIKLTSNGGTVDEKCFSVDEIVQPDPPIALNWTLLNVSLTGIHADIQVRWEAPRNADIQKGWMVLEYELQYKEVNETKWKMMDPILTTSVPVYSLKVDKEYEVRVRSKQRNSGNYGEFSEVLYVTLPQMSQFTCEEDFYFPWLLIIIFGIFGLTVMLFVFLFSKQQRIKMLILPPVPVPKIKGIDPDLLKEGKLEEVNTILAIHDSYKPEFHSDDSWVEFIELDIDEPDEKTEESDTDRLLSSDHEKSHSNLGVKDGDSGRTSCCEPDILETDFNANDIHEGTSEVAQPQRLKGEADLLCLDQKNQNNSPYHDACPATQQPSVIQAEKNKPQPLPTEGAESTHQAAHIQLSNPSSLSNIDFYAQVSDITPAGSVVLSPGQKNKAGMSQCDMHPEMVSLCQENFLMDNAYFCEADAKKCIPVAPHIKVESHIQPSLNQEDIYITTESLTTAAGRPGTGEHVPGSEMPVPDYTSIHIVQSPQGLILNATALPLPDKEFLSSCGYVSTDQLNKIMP
Experimental: Electrophoretic Mobility Shift Assay: Electrophoretic Mobility Shift Assay (EMSA) is a method used to investigate protein-DNA interactions. A DNA probe with a known sequence is end-labeled with ^33P-ATP and then incubated with nuclear extracts. Proteins that bind specifically to the DNA-probe will reduce the mobility of the complex when separated on a non-denaturing poly acryl-amid gel and a shifted band can be seen. To identify proteins bound to the DNA-probe, an antibody can be added to the nuclear extract before incubation with the DNA-probe. If the antibody recognizes a protein that binds to the DNA, the mobility of the complex will be reduced even further and cause a supershift.

[5] = test system: protein interactions with AP2 DNA probe; experiment: EMSA with AP2 DNA probe, nuclear extracts of GHR-transfected WRL-68 cells; assay type: cell-based, human; conditions: stimulated
Experimental: as §1, §2, §3

GH-inducible mRNA = GH-inducible mRNA level; assay type: cell-based
[6] = test system: protein-DNA binding to GHRE DNA probe; experiment: EMSA with GHRE DNA probe, HX rat liver nuclear extracts; parameters: species or system Sprague Dawley rat; conditions: HX rats stimulated with hGH vs control animals
Experimental: (§6) Nuclear and cytosolic fractions were prepared from hypophysectomized Sprague Dawley rat livers (ethical license N176/02). The rats had minipumps implanted at 5 weeks of age for administration of hGH. Control animals were not stimulated and thus completely GH-deficient while GH-animals were stimulated continuously with hGH 0.12 mg/kg/day for five days. Animals were anaesthetized and livers were cut out and placed in ice-cold PBS. Livers were then cut into smaller pieces and transferred to 8 ml ice-cold hypotonic buffer with protease and phosphatase inhibitors and were allowed to swell on ice for 10 minutes. […]
as §3

[7] = test system: protein-DNA interaction with AP2 DNA probe; experiment: EMSA with AP2 DNA probe, HX rat liver nuclear extracts; parameters: species or system Sprague Dawley rat; conditions: hGH stimulated animals compared to control animals
Experimental: as §6, §3

[8] = test system: protein-DNA binding to OCT1 DNA probe; experiment: EMSA with OCT1 DNA probe, HX rat liver nuclear extracts; parameters: species or system Sprague Dawley rat; conditions: HX rats stimulated with hGH vs control animals
Experimental: as §6, §3

Row | Compound | protein-DNA interaction, top specific band, OCT1 probe [1] | effect on AP1 shifted band [2] | protein-DNA interaction in top shifted band, GHRE probe ([3]; GHR-transfected WRL-68 cells stimulated with BVTA) | effect on GHRE top weak band ([3]; non-transfected WRL-68 cells, stimulated) | interaction of GH receptor with other transcription factors [4] | protein-DNA interaction, top specific band, AP2 probe [5] | GH-inducible mRNA (GH-inducible mRNA) | protein-DNA binding, GHRE probe, hGH stimulation [6] | effect of stimulation on shifted bands, GHRE probe ([3]; both GHR-transfected and non-transfected WRL-68 cells) | protein-DNA binding, AP2 probe, hGH stimulation [7] | protein-DNA binding, OCT1 probe, hGH stimulation [8]
1 | Cc1ccc(S(N)(=O)=O)cc1NC(=O)c1ccc(Br)o1 [BVTA, N-[5-(aminosulfonyl)-2-methylphenyl]-5-bromo-2-furamide] | decreased | no effects | disrupted | no effect | down regulated | broke the protein-DNA interaction | decrease | – | – | – | –
2 | hGH: human growth hormone (Genotropin, Pharmacia) | No effects | no effects | – | – | – | no effects | – | did not show any differences | No effect | No difference in protein-DNA binding | did not show any differences
